Laboratory results reported in patent publication US20090258052A1, “COMPOUNDS AND METHODS FOR ALTERING BONE GROWTH” (OsteoGeneX Inc., priority 2008, published 2009).

Columns and labels:
SOST (Sclerostin) = test: Assay for identification of SOST antagonists promoting bone growth (J Bone Miner Res 2006, 21(11), 1738-1749)
Text: Compounds useful in the methods of the present invention can be identified via a variety of methods known to one of skill in the art. Several exemplary methods for identifying such antagonists are described herein, including cell-based and in vitro techniques (Journal of Bone and Mineral Research 2006, 21(11), 1738-1749). A general method of identifying SOST antagonists involves evaluating the effects of antagonist candidates on bone formation under controlled conditions. Preferably bone formation is determined using micro-CT techniques on live animals. Preferred animals include rodents, more preferred are primates. Femur, tibia and vertebrae bones are particularly useful subjects for such study.
Briefly, the test animal is treated with a predetermined dose of a SOST antagonist candidate. A control animal is treated with a control solution, preferably a non-irritating buffer solution or other carrier.
Once the dosing schedule has been completed, both test and control animals are examined to determine the quantity of bone formation present. This can be accomplished by any suitable method, but is preferably performed on live animals to analyze the bone mineral content. Methods for micro-CT examination of bones in animals are well known in the art. […] Where necessary, levels of bone formation can be calculated by determining the volume of bone formation present in each animal. […]

C57BL/6 mice = test: Bone growth study in mice, daily i.p. for 30 days; serum osteocalcin by EIA Elisa; assay type: in vivo; details: four month old male C57BL/6 mice
Protocol: Four month old male C57BL/6 mice were treated daily with saline vehicle or sclerostin inhibitors at low, mid, or high doses (via i.p) for 30 days. Study endpoints included a biochemical marker of bone formation, osteocalcin measured by EIA Elisa, and measurement of trabecular bone volume by mico-CT analysis on both the proximal tibia and L5 vertebra.

O=c1[nH]nc(SCCO)c(=O)[nH]1 [OGX-21]
modulation of the Wnt pathway (SOST (Sclerostin); FIG. 1): modulating the Wnt pathway | promotion of bone growth (SOST (Sclerostin); identification assay): promoting bone growth | percent increase in serum osteocalcin over baseline (C57BL/6 mice; 10 mg/kg (A)): 2% | percent increase in serum osteocalcin over baseline (C57BL/6 mice; 20 mg/kg (B)): 28% | percent increase in serum osteocalcin over baseline (C57BL/6 mice; 30 mg/kg (C)): 15%
